Measured values as given in PubChem BioAssay AID1963960 (Molecular Pharmacology Branch, DTP, NCI, 2024).
pIC50: −log10 of the molar value.

Test system: MDA-MB-468 spheroids with HUVEC/MSC, viability
Assay: Anticancer human tumor MDA-MB-468 cell line growth inhibition [PI3K];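 further: spheroids exposed to agents for seven days before readout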;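 on viability, T/C: 100% = DMSO vehicle control viability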
Conditions: for pIC50: curve of first compound; for viability, T/C: stronger effect = lower value
Outline: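 High-throughput combination screen: PI3K inhibitors crossed with targeted small molecules on complex spheroids of tumor cells, HUVEC and MSCs at 37 degrees C, 5% CO2. Top concentration was at or near clinical Cmax (otherwise 10 microM), with half-log decrements.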

[1] = second compound 0.00316 µM, first compound 0.0316 µM
[2] = second compound 0.00316 µM, first compound 0.1 µM
[3] = second compound 0.01 µM, first compound 0.0316 µM
[4] = second compound 0.01 µM, first compound 0.1 µM
[5] = second compound 0.0316 µM, first compound 0.0316 µM
[6] = second compound 0.0316 µM, first compound 0.1 µM
[7] = second compound 0.0316 µM, first compound 0.316 µM
[8] = second compound 0.0316 µM, first compound 1 µM
[9] = second compound 0.0316 µM, first compound 3.16 µM
[10] = second compound 0.0316 µM, first compound 10 µM
[11] = second compound 0.1 µM, first compound 0.0316 µM
[12] = second compound 0.1 µM, first compound 0.1 µM
[13] = second compound 0.1 µM, first compound 0.316 µM
[14] = second compound 0.1 µM, first compound 1 µM
[15] = second compound 0.1 µM, first compound 3.16 µM
[16] = second compound 0.1 µM, first compound 10 µM
[17] = second compound 0.316 µM, first compound 0.0316 µM
[18] = second compound 0.316 µM, first compound 0.1 µM
[19] = second compound 0.316 µM, first compound 0.316 µM
[20] = second compound 0.316 µM, first compound 1 µM
[21] = second compound 0.316 µM, first compound 3.16 µM
[22] = second compound 0.316 µM, first compound 10 µM
[23] = second compound 1 µM, first compound 0.0316 µM
[24] = second compound 1 µM, first compound 0.1 µM
[25] = second compound 1 µM, first compound 0.316 µM
[26] = second compound 1 µM, first compound 1 µM
[27] = second compound 1 µM, first compound 3.16 µM
[28] = second compound 1 µM, first compound 10 µM

**Q.** With `CC1(C)CCC(CN2CCN(c3ccc(C(=O)NS(=O)(=O)c4ccc(NCC5CCOCC5)c([N+](=O)[O-])c4)c(Oc4cnc5[nH]ccc5c4)c3)CC2)=C(c2ccc(Cl)cc2)C1` + COc1c(OCCCN2CCOCC2)ccc2c3n(c(=NC(=O)c4cnc(N)nc4)nc12)CCN3 as the compound, how does the pIC50 (second compound 0.00316 µM) read?
**A.** < 5.00

**Q.** What about the pIC50 (second compound 0.01 µM) of the same compound?
**A.** < 5.00

**Q.** What about the pIC50 (second compound 0.0316 µM) of the same compound?
**A.** < 5.00

**Q.** And the pIC50 (second compound 0.1 µM)?
**A.** < 5.00

**Q.** What about the pIC50 (second compound 0.316 µM) of the same compound?
**A.** > 7.50

**Q.** What about the pIC50 (second compound 1 µM) of the same compound?
**A.** > 7.50

**Q.** What about the viability, T/C [1] of the same compound?
**A.** 80.4%

**Q.** And the viability, T/C [2]?
**A.** 87%

**Q.** What about the viability, T/C (second compound 0.00316 µM, first compound 0.316 µM) of the same compound?
**A.** 82.9%

**Q.** What about the viability, T/C (second compound 0.00316 µM, first compound 1 µM) of the same compound?
**A.** 99.9%

**Q.** And the viability, T/C (second compound 0.00316 µM, first compound 3.16 µM)?
**A.** 80.3%

**Q.** And the viability, T/C (second compound 0.00316 µM, first compound 10 µM)?
**A.** 78.3%

**Q.** What about the viability, T/C [3] of the same compound?
**A.** 79.2%

**Q.** And the viability, T/C [4]?
**A.** 79.7%

**Q.** What about the viability, T/C (second compound 0.01 µM, first compound 0.316 µM) of the same compound?
**A.** 92%

**Q.** And the viability, T/C (second compound 0.01 µM, first compound 1 µM)?
**A.** 87.9%

**Q.** And the viability, T/C (second compound 0.01 µM, first compound 3.16 µM)?
**A.** 76.2%

**Q.** And the viability, T/C (second compound 0.01 µM, first compound 10 µM)?
**A.** 90.2%

**Q.** And the viability, T/C [5]?
**A.** 77.5%

**Q.** And the viability, T/C [6]?
**A.** 71.2%

**Q.** And the viability, T/C [7]?
**A.** 80%

**Q.** What about the viability, T/C [8] of the same compound?
**A.** 83.1%

**Q.** What about the viability, T/C [9] of the same compound?
**A.** 73%

**Q.** What about the viability, T/C [10] of the same compound?
**A.** 69.6%

**Q.** And the viability, T/C [11]?
**A.** 55.7%

**Q.** What about the viability, T/C [12] of the same compound?
**A.** 54.8%

**Q.** What about the viability, T/C [13] of the same compound?
**A.** 69.7%

**Q.** What about the viability, T/C [14] of the same compound?
**A.** 63.4%

**Q.** And the viability, T/C [15]?
**A.** 52.5%

**Q.** And the viability, T/C [16]?
**A.** 67.6%

**Q.** And the viability, T/C [17]?
**A.** 26.4%

**Q.** What about the viability, T/C [18] of the same compound?
**A.** 23.5%

**Q.** What about the viability, T/C [19] of the same compound?
**A.** 25.5%

**Q.** And the viability, T/C [20]?
**A.** 28.9%

**Q.** And the viability, T/C [21]?
**A.** 25.5%

**Q.** And the viability, T/C [22]?
**A.** 22.8%

**Q.** And the viability, T/C [23]?
**A.** 4.5%

**Q.** What about the viability, T/C [24] of the same compound?
**A.** 3.78%

**Q.** What about the viability, T/C [25] of the same compound?
**A.** 4.07%

**Q.** And the viability, T/C [26]?
**A.** 3.93%

**Q.** What about the viability, T/C [27] of the same compound?
**A.** 4.32%

**Q.** What about the viability, T/C [28] of the same compound?
**A.** 4.03%

**Q.** What does the source list for `CCCS(=O)(=O)Nc1ccc(F)c(C(=O)c2c[nH]c3ncc(-c4ccc(Cl)cc4)cc23)c1F` + CC(Nc1ncnc2nc[nH]c12)c1cc2cccc(Cl)c2c(=O)n1-c1ccccc1?
**A.** pIC50 (second compound 0.0316 µM): 5.35; pIC50 (second compound 0.1 µM): 5.41; pIC50 (second compound 0.316 µM): 5.43; pIC50 (second compound 1 µM): 5.46; pIC50 (second compound 3.16 µM): 5.60; pIC50 (second compound 10 µM): > 7.50; viability, T/C [5]: 96.6%; viability, T/C [6]: 86.8%; viability, T/C [7]: 84.3%; viability, T/C [8]: 83.2%; viability, T/C [9]: 65.3%; viability, T/C [10]: 15.6%; viability, T/C [11]: 92.4%; viability, T/C [12]: 90.9%; viability, T/C [13]: 76.3%; viability, T/C [14]: 82.2%; viability, T/C [15]: 58.1%; viability, T/C [16]: 13.4%; viability, T/C [17]: 83.2%; viability, T/C [18]: 89.2%; viability, T/C [19]: 78.3%; viability, T/C [20]: 73.6%; viability, T/C [21]: 57.2%; viability, T/C [22]: 14%; viability, T/C [23]: 61.7%; viability, T/C [24]: 66.1%; viability, T/C [25]: 69%; viability, T/C [26]: 68.3%; viability, T/C [27]: 53.6%; viability, T/C [28]: 11%; viability, T/C (second compound 3.16 µM, first compound 0.0316 µM): 53.6%; viability, T/C (second compound 3.16 µM, first compound 0.1 µM): 64.3%; viability, T/C (second compound 3.16 µM, first compound 0.316 µM): 49.3%; viability, T/C (second compound 3.16 µM, first compound 1 µM): 57.7%; viability, T/C (second compound 3.16 µM, first compound 3.16 µM): 48.4%; viability, T/C (second compound 3.16 µM, first compound 10 µM): 11.2%; viability, T/C (second compound 10 µM, first compound 0.0316 µM): 40.3%; viability, T/C (second compound 10 µM, first compound 0.1 µM): 39.3%; viability, T/C (second compound 10 µM, first compound 0.316 µM): 40.6%; viability, T/C (second compound 10 µM, first compound 1 µM): 42.9%; viability, T/C (second compound 10 µM, first compound 3.16 µM): 41.1%; viability, T/C (second compound 10 µM, first compound 10 µM): 8.78%

**Q.** How did the pIC50 (second compound 0.00316 µM) turn out when `Cn1ncnc1[C@H]1c2n[nH]c(=O)c3cc(F)cc(c23)N[C@@H]1c1ccc(F)cc1` + CC(Nc1ccc2c(c1)OCCn1cc(N3C(=O)OCC3C(F)F)nc1-2)C(N)=O was run?
**A.** < 7.00

**Q.** And the pIC50 (second compound 0.01 µM)?
**A.** < 7.00

**Q.** And the pIC50 (second compound 0.0316 µM)?
**A.** < 7.00

**Q.** What about the pIC50 (second compound 0.1 µM) of the same compound?
**A.** 7.06

**Q.** What about the pIC50 (second compound 0.316 µM) of the same compound?
**A.** 7.37

**Q.** What about the pIC50 (second compound 1 µM) of the same compound?
**A.** 7.29

**Q.** What about the viability, T/C (second compound 0.00316 µM, first compound 0.000316 µM) of the same compound?
**A.** 93.1%

**Q.** And the viability, T/C (second compound 0.00316 µM, first compound 0.001 µM)?
**A.** 87.6%

**Q.** What about the viability, T/C (second compound 0.00316 µM, first compound 0.00316 µM) of the same compound?
**A.** 87.3%

**Q.** What about the viability, T/C (second compound 0.00316 µM, first compound 0.01 µM) of the same compound?
**A.** 96.8%

**Q.** And the viability, T/C [1]?
**A.** 72.2%

**Q.** And the viability, T/C [2]?
**A.** 55.4%

**Q.** And the viability, T/C (second compound 0.01 µM, first compound 0.000316 µM)?
**A.** 90%

**Q.** What about the viability, T/C (second compound 0.01 µM, first compound 0.001 µM) of the same compound?
**A.** 99.3%

**Q.** And the viability, T/C (second compound 0.01 µM, first compound 0.00316 µM)?
**A.** 81%

**Q.** And the viability, T/C (second compound 0.01 µM, first compound 0.01 µM)?
**A.** 85.6%

**Q.** And the viability, T/C [3]?
**A.** 76.3%

**Q.** What about the viability, T/C [4] of the same compound?
**A.** 56.5%

**Q.** What about the viability, T/C (second compound 0.0316 µM, first compound 0.000316 µM) of the same compound?
**A.** 107%

**Q.** And the viability, T/C (second compound 0.0316 µM, first compound 0.001 µM)?
**A.** 88.9%

**Q.** What about the viability, T/C (second compound 0.0316 µM, first compound 0.00316 µM) of the same compound?
**A.** 83%

**Q.** What about the viability, T/C (second compound 0.0316 µM, first compound 0.01 µM) of the same compound?
**A.** 83.5%

**Q.** What about the viability, T/C [5] of the same compound?
**A.** 74.5%

**Q.** And the viability, T/C [6]?
**A.** 47.3%

**Q.** What about the viability, T/C (second compound 0.1 µM, first compound 0.000316 µM) of the same compound?
**A.** 99.5%

**Q.** And the viability, T/C (second compound 0.1 µM, first compound 0.001 µM)?
**A.** 77.4%

**Q.** And the viability, T/C (second compound 0.1 µM, first compound 0.00316 µM)?
**A.** 72.4%

**Q.** And the viability, T/C (second compound 0.1 µM, first compound 0.01 µM)?
**A.** 80.2%

**Q.** What about the viability, T/C [11] of the same compound?
**A.** 75.6%

**Q.** And the viability, T/C [12]?
**A.** 45.5%

**Q.** And the viability, T/C (second compound 0.316 µM, first compound 0.000316 µM)?
**A.** 93.4%

**Q.** What about the viability, T/C (second compound 0.316 µM, first compound 0.001 µM) of the same compound?
**A.** 73.6%

**Q.** And the viability, T/C (second compound 0.316 µM, first compound 0.00316 µM)?
**A.** 73.9%

**Q.** And the viability, T/C (second compound 0.316 µM, first compound 0.01 µM)?
**A.** 67.5%

**Q.** And the viability, T/C [17]?
**A.** 52.4%

**Q.** What about the viability, T/C [18] of the same compound?
**A.** 40.6%

**Q.** And the viability, T/C (second compound 1 µM, first compound 0.000316 µM)?
**A.** 73.7%

**Q.** And the viability, T/C (second compound 1 µM, first compound 0.001 µM)?
**A.** 73.4%

**Q.** What about the viability, T/C (second compound 1 µM, first compound 0.00316 µM) of the same compound?
**A.** 68.7%

**Q.** What about the viability, T/C (second compound 1 µM, first compound 0.01 µM) of the same compound?
**A.** 67%

**Q.** What about the viability, T/C [23] of the same compound?
**A.** 56%

**Q.** And the viability, T/C [24]?
**A.** 41.3%
